Assay results as given in EP0551200A1, “Protein phosphatase inhibitors for use in therapy” (priority 1992, dated 1993).

Tests used:
c-jun = test: Northern blot analysis of c-jun gene expression in human fibroblasts; assay type: cell-based; conditions: OA 500 nM
Procedure: Quiescent human fibroblasts were incubated with TNF (500 units/ml) (a) or OA (500 nM) (b) for 0, 30, 60 min after which total cellular RNA was extracted. Blots of RNA from these cells were hybridized to radiolabeled (10⁶ cpm/ml) Egr-1 cDNA probe. c, the blot in b was stripped and reprobed with c-jun cDNA. Note: Egr-1 mRNA probe was not completely stripped from the blot. The autoradiograph of the blot is presented. d, regularly maintained cells were incubated wither with no additions (control, 0 time) or with OA for 1, 3, 5, 7 h and Northern analysis was carried out with an IL-6 cDNA probe (ATCC, Rockville, MD, US).
Preparation of RNA and Northern Analysis - Human fibroblasts (4 x 10⁶) were seeded in 175cm² tissue culture flasks and incubated at 37°C for 6 days in regular medium. The cells were fed with regular medium on day 3. On day 6 the medium was replaced by minimal essential medium containing 0.25% fetal calf serum and incubated for another 48 h to maintain the cells in a quiescent state. Quiescent or regularly maintained cells were treated with a specific agonist for the times indicated (see Fig. 7). The cells were harvested and total cytoplasmic RNA isolated by a one-step guanidinium thiocyanate/phenol/chloroform method. […] The blots were autoradiographed and quantitated by the Visage 2000 Image system (BioImage Products, Ann Arbor, MI, US).

Egr-1 mRNA = test: Nuclear run-on analysis of transcription in Balb/c 3T3 cells; assay type: cell-based, mouse; conditions: 0.5 µM
Procedure: Nuclei were isolated from quiescent (0 h) and okadaic acid-treated (0.5 µM) Balb/c 3T3 cells under conditions described in the "Experimental Procedures" of Example 2. Nylon matrix containing the indicated plasmids were hybridized with the in vitro transcribed RNA and then autoradiographed. Control cells were also treated with DMEM containing […] of DMSO and RNA from these cells were also transcribed and hybridized to the various plasmids indicated.
Cell Cultures and Reagents. Human diploid foreskin fibroblasts were a gift from Dr J Vilcek (New York University, New York). The cells were grown in MEM supplemented with 10% fetal bovine serum (Hyclone, Logan, UT, US), Mouse Balb/c 3T3 cells were purchased from the American Type Culture Collection and grown in Dulbecco's MEM (DMEM) supplemented with 10% fetal bovine serum. Okadaic acid, calyculin A, H7, and HA1004 were purchased from Biomol Research Laboratories (Plymouth Meeting, PA, US). TPA, puromycin and dBt-cAMP were purchased from Sigma (St Louis, MO, US) 1 mM stock solutions of okadaic acid or calyculin A were solubilized in DMSO. [³²P]orthophosphate and other radioactive chemicals were purchased from Du Pont-New England Nuclear (Boston, MA). Preparation of RNA and Northern Analysis. Balb/c 3T3 cells were grown to near confluency in DMEM supplemented with 10% fetal calf serum. The cells were then maintained in DMEM without serum for 48 h followed by treatment with the indicated agonists for the times indicated. Similarly human fibroblasts were maintained in MEM supplemented with 10% fetal bovine serum. Nearly confluent human fibroblasts were maintained for 2 days in MEM supplemented with 0.25% fetal bovine serum before treatment with agonists. The cells were harvested and total cytoplasmic RNA was isolated and subjected to Northern analysis as previously described (Chomczynski et al, Anal. Biochem. 162, 156-159, 1987). The blots were autoradiographed and quantitated with the aid of the Visage 2000 Image System (BioImage Products, Ann Arbor, MI, US). Nuclear Run-on Analysis of Transcription. […]

C=C1[C@@H](O)[C@@H]2O[C@]3(CC[C@H](/C=C/[C@@H](C)[C@@H]4CC(C)=C[C@@]5(O[C@H](C[C@@](C)(O)C(=O)O)CC[C@H]5O)O4)O3)CC[C@H]2O[C@@H]1[C@@H](O)C[C@H](C)[C@H]1O[C@@]2(CCCCO2)CC[C@H]1C [okadaic acid]
time to induction of c-jun (c-jun): ≤ 60 min
time at which a trace of newly transcribed Egr-1 mRNA was detectable (Egr-1 mRNA): 0.5 h
time by which significant amounts of Egr-1 mRNA were transcribed (Egr-1 mRNA): ≤ 1 h
time of maximum transcription of Egr-1 mRNA (Egr-1 mRNA): 4 h
